For assay [1], the system named is gastric mucosal damage induced by ethanolic HCl. Description: Gastritis model induced with ethanolic-HCl. Type of assay: in vivo, SD male rat. The settings on record: po, 1 h, rat; for inhibition in vivo at 0.3 mg/kg: 0.3 mg/kg p.o.; for inhibition in vivo at 1 mg/kg: 1 mg/kg p.o.; for inhibition in vivo at 3 mg/kg: 3 mg/kg p.o. How it is done:
Effect on the Gastritis Model Induced with Ethanolic-HCl.
SD male rat(250-350 g) was fasted for 24 hours. The compound was orally administered in suspension of 5% HPMC, and after 1 hour 1.5 mL of 150 mM HCl-80% ethanol was orally administered. After 1 hour the rat was sacrifieced and the stomach was extracted and the ulcer index was measured. The ulcer index was shown by the area of hemorrhage lesion(Mizui, T, et al., Jpn. J. Pharmacol. 1983, 33: 939).

The next assay concerns ulcer. The settings on record: in vivo; cited from earlier work.
Another assay has as its system neutrophils. Put plainly: Luminol-dependent chemiluminescence of neutrophils induced by FMLP. The settings on record: 1 μM FMLP, 0.07 mM luminol; for IC50: Neutrophil, read-out: IC50, inhibition of chemiluminescence generated by neutrophil activation. Type of assay: cell-based. As for the experimental part:
Measurement of luminol-dependent chemiluminescencei iof neutrophil induced by FMLP.
20 mL of 12% sodium caseinate-0.9% saline was administered intraperitoneally (Newsby, A. C., Biochem. J., 1980, 186: 907,. After 20 hours, the intraperitoneal exudate was extracted under ether anesthesia. The exudate was centrifuged, and erythrocytes were removed by hypotonic lysis, and then neutrophil was washed. Neutrophil was ascertained by Wright's dyeing method, and viability was measured by Trypan blue exclusion test. Chemiluminescence was measured by Topcount (Packard Co.). The suspension of 1.5×10^6 of granulocytes, 1 μM of FMLP, 0.07 mM of luminol and the compound in HBSS was used (Dahlgren, C., et al., Infect. Immun., 1985 47: 326-328).
**IC50 (μg/mL): Concentration of the compound at inhibiting
chemiluminescence generated by neutrophil activation to 50%

The next assay relates to gastric mucus secretion. Put plainly: Measurement of gastric mucus. Type of assay: in vivo, SD male rat. To be noted: oral, rat. How it is done: Measurement of Gastric Mucus
The compound was orally administered into SD male rat (200~250 g). After 1 hour the stomach was extracted. The extracted stomach was immediately washed with 10 mL of cold 0.25M sucrose solution. The gastric mucosa was dyed with 0.1% alcian blue solution for 2 hours. After dyeing, the gastric mucosa was washed with 0.25M sucrose solution twice for 15 minutes and for 45 minutes. The dyed gastric mucosa was treated with 10 mL of 30% dioctyl sodium sulfosuccinate solution for 2 hours to extract dyed mucus completely and optical density of aqueous phase was measured spectrophotometrically at 655 nm. The amount of mucus in the gastric mucosa was shown as the amount of alcian blue after calibration (Kitagawa, H., et al., Drug Res. 1986, 36: 1240-1244).

In assay [2] the test system is chronic gastritis induced with acetic acid. Description: Model of chronic gastritis induced with acetic acid. It is filed as in vivo, SD male rat. To be noted: once a day for 21 days, rat. How it is done:
Experiment on the Model of Chronic Gastritis Induced with Acetic Acid
From the next day of the surgical operation, the compound was orally administered once a day for 21 days. After 21 days, the stomach was extracted under ether anesthesis, dipped in 1% formalin solution and the area of gastric lesion was measured. […] An pathological tissue autopsy was carried out for the prepared specimen.

The test system of the next assay is TNBS-induced colitis. Description: TNBS-induced colitis model, oral administration. It is filed as in vivo, male SD rats. To be noted: for lesion scores: once a day for 13 days, rat; for adhesion degree / dilation and extention degree: score 0-3, rat. As for the experimental part:
Experiment on the Model of Inflammatory Bowl Diseases Induced with TNBS
7 week-aged male SD rats were fasted for a day, and the rats were put under anesthesia and canula (diameter 3 mm) was inserted into the anus to the depth of 8 cm. 25 mg/mL of TNBS (Trinitrobenzene sulfonic acid) dissolved in 50% ethanol solution was injected to each rat and the rats were positioned at feature of tail up for 1 minute. The solution flowing out was removed and the rats were once washed with 1.5 mL of saline solution. After colitis was induced, the compound was administered orally or intracolonically once a day for 13 days. For control, mesalazine (5-amino salicylic acid) was used for oral administration and prednisolone was used for rectal administration. At 14th day of experiment, each group of the rats were put under ether anesthesis, the colon was extracted and the degree of adhesion and extension of the large intestine were measured and their lesion scores were recorded. After 1% formalin solution was injected to the cavity of the extracted colon to inflate, the both ends of it were bonded with each other and it was all-fixed in 1% formalin solution for 2 hours. The all-fixed colon was cut to lengthy direction and washed to remove surrounding fat tissues and connective fissaes. After cecum was removed, the weight of the colon and the rectum was measured, and the area of ulcer lesion, and microscopic lesion were measured to mark scores according to the criterion. And they were fixed in 10% neutral formalin solution, and the tissue examination of lesion site was performed by general method to mark scores according to the criterion.
Clinical symptoms: Daily, we observed clinical symptoms and survival of the animals. And we measured the weight of the animals at the beginning day, third and eighth day of the experiment.
(0: non-adhesion, 1: adhesion exists but easily taken off by gloved hand, 2: more severe adhesion than 1 exists but easily taken off by scissors, 3: very severe adhesion exists, so it is difficult to be taken off by scissors because of possibility of its perforation.)
Degree of thickening and extension of the large intestine: We marked scores of the degree of thickness and extension of the large intestine according to the criterion, following the method of Kim et al., and compared with the average value of each group.
(0: lesion site non-existing, 1: a few degree of lesion, 2: intermediate degree of lesion, 3: severe degree of lesion)
We scored the lesion examined with the naked eye and compared the average value of each group. The standards of lesion scores as criterion of the damage of the colon by Wallace's method is as followings.
(0: normal, non-damaged, 1: congestion without ulcer 2: congestion and thickening of intestinal wall without ulcer, 3: an ulcer lesion without thickening of intestinal wall, 4: more than two ulcerous/inflammatory lesion, 5: more than two ulcerous/inflammatory lesion or the length of ulcerous/inflammatory lesion is more than 1 cm, 6-10: when the length of lesion is over 2 cm, one point increases everytime 1 cm of the length of ulcerous/inflammatory increases, for example, when the ulcer length is 3 cm, the point is 7.)
Microscopic evaluation: We trimmed the colon giving 3 cm interval from the rectum to the cecum, including the site of lesion examined with the naked eye, to make at least 4 specimens per an individual. […] When the lesion can not be examined with the naked eye, we trimmed the other specimen which has the lesion, with 3 cm interval.

The next assay relates to cyclooxygenase. Description: Cyclooxygenase activity in HUVEC (PGF1 α synthesis). Type of assay: cell-based. How it is done: Measurment of Cyclooxygenase Actvity
After addition of the compound to cultured HUVEC, the HUVEC was incubated at 37° C., for 30 minutes, then arachidonic acid (final concentration: 30 .rho.M) was added, and the HUVEC was additionally incubated at 37° C. for 15 minutes. The culture medium was taken, and the activity of cyclooxygenase for 6-Keto-PGF1 α or PGE2 was measured by radioimmunoassay (Mitchell, J. A., et al., Pro. Natl. Acad. Sci. USA 1994, 90: 11693-11697).
**SC200 (ug/mL) : Concentration at increasing generation of […]

By inhibition in vivo is commonly meant the percentage by which the read-out fell short of the control. A low value points to little suppression. Broadly, the IC50 is the concentration that gives 50% inhibition.

SMILES strings stand for the structures. Values after ≈ are worked out from the molar mass of the structure shown.

In assay [1], `COc1ccc(-c2cc(=O)c3cc(OC)c(OCC(=O)O)cc3o2)cc1OC` [7-carboxymethyloxy-3',4',6-trimethoxy flavone] showed an inhibition in vivo at 0.3 mg/kg of 30%, an inhibition in vivo at 1 mg/kg of 31% and an inhibition in vivo at 3 mg/kg of 39%.

In assay [1], `COc1ccc(-c2cc(=O)c3c(OC)cc(OCCO)cc3o2)cc1OC` [7-hydroxyethyloxy-3',4',5-trimethoxy flavone] had an inhibition in vivo at 0.3 mg/kg of 0%, an inhibition in vivo at 1 mg/kg of 34% and an inhibition in vivo at 3 mg/kg of 47%.

As to `O=C1C[C@@H](c2ccc(O)cc2)Oc2cc(O)cc(O)c21` [naringenin], the anti-ulcerative action entry in the assay on ulcer was “anti-ulcerative action”.

Take `COc1ccc(-c2cc(=O)c3c(OC)c(OC)c(OCCO)cc3o2)cc1OC` [7-hydroxyethyloxy-3',4',5,6-tetramethoxy flavone]: the IC50 in the assay with neutrophils stood at 0.13 mg/L (≈ 0.323 µM). Moreover, in assay [1], the inhibition in vivo at 0.3 mg/kg was determined as 43%, the inhibition in vivo at 1 mg/kg was 50% and the inhibition in vivo at 3 mg/kg is 51%.

Consider `COc1ccc(C2CC(=O)c3c(cc(OCC(=O)O)c(OC)c3O)O2)cc1OC` (centres unmarked) [7-carboxymethyloxy-5-hydroxy-3',4',6-trimethoxy flavanone], for which, in the assay with neutrophils, the IC50 amounted to 1.79 mg/L (≈ 4.43 µM). In assay [1], this compound showed an inhibition in vivo at 0.3 mg/kg of 0%, an inhibition in vivo at 1 mg/kg of 18% and an inhibition in vivo at 3 mg/kg of 50%.

On to `COc1ccc(C2CC(=O)c3c(OC)cc(O)cc3O2)cc1OC` (centres unmarked) [7-hydroxy-3',4'5-trimethoxy flavanone, 7-hydroxy-3',4',5-trimethoxy flavanone], for which, in assay [1], the inhibition in vivo at 0.3 mg/kg worked out at 30%, 1 mg/kg produced 57% inhibition in vivo and the inhibition in vivo at 3 mg/kg was found to be 76%.

`O=C(NC(Cc1cc(=O)[nH]c2ccccc12)C(=O)O)c1ccc(Cl)cc1` (centres unmarked) [Rebamipide, 2(4-chlorobenzoylamino)-3-(2-(LH)-quinolinone-4-yl)propanonic acid, reference compound]: the “IC50, inhibition of chemiluminescence generated by neutrophil activation” value in the assay on neutrophils stood at 92 mg/L. Further, the IC50 with neutrophils amounted to 92.1 mg/L (≈ 248 µM). Also, the “gastric mucus secretion, % Control” value with gastric mucus secretion (10 mg/kg) is given as 128 % Control; with gastric mucus secretion (100 mg/kg), 136 % Control. Also, the “inhibiting% (gastric lesion)” value in assay [2] (10 mg/kg p.o.) is on record as 41%; in assay [2] (100 mg/kg p.o.) it was 7%. The inhibition in vivo at 3 mg/kg in assay [1] stood at 22%. The compound also yielded an inhibition in vivo at 10 mg/kg in assay [1] (10 mg/kg p.o.) of 30%. In addition, the inhibition in vivo at 30 mg/kg in assay [1] (30 mg/kg p.o.) came to 47%.

Turning to `Nc1ccc(O)c(C(=O)O)c1` [mesalazine, 5-amino salicylic acid, reference compound], in the assay with TNBS-induced colitis (25 mg/kg p.o.), the lesion scores was found to be 2.8; the adhesion degree came out at 1.4; the “dilation and extention degree” value is 0.9. In addition, in the assay with TNBS-induced colitis (50 mg/kg p.o.), the lesion scores is recorded as 2.2; the adhesion degree stood at 1.0; the “dilation and extention degree” value was determined as 1.1.

On to `O=c1cc(-c2ccc(O)c(O)c2)oc2c(O[C@@H]3O[C@H](CO)[C@@H](O)[C@H](O)[C@H]3O)c(O)cc(O)c12` [hypolaetin-8-glucoside], for which the anti-ulcerative action entry in the assay on ulcer is on record as “anti-ulcerative action”.

For `COc1ccc([C@@H]2CC(=O)c3c(O)cc(O[C@@H]4O[C@H](CO[C@@H]5O[C@@H](C)[C@H](O)[C@@H](O)[C@H]5O)[C@@H](O)[C@H](O)[C@H]4O)cc3O2)cc1O` [hesperidine], in the assay with ulcer, the anti-ulcerative action entry was “anti-ulcerative action”.

As for `COC(=O)COc1cc(OC)c2c(=O)cc(-c3ccc(OC)c(OC)c3)oc2c1` [7-methoxycarbomethyloxy-3',4',5-trimethoxy flavone], the IC50 with neutrophils was found to be 0.95 mg/L (≈ 2.37 µM).

In assay [1], `CNC(=O)COc1cc(OC)c2c(=O)cc(-c3ccc(OC)c(OC)c3)oc2c1` [7-(N-methylamidomethyloxy)-3',4',5-trimethoxy flavone] returned an inhibition in vivo at 0.3 mg/kg of 43%, an inhibition in vivo at 1 mg/kg of 47% and an inhibition in vivo at 3 mg/kg of 45%.

Consider `COc1ccc(-c2cc(=O)c3c(O)c(OC)c(OCC(=O)O)cc3o2)cc1OC` [7-carboxymethyloxy-5-hydroxy-3',4',6-trimethoxy flavone], for which the “SC200, concentration increasing generation of PGF1α to 200%” value with cyclooxygenase is 18.41 µg/mL. Also, the IC50 in the assay on neutrophils is 1.73 mg/L (≈ 4.3 µM). In assay [1], this compound gave an inhibition in vivo at 0.3 mg/kg of 16%, an inhibition in vivo at 1 mg/kg of 77% and an inhibition in vivo at 3 mg/kg of 56%.

In the case of `O=c1c(O)c(-c2ccc(O)c(O)c2)oc2cc(O)cc(O)c12` [quercetin], the anti-ulcerative action result in the assay with ulcer is listed as “anti-ulcerative action”.

`O=c1c(O)c(-c2ccc(O)cc2)oc2cc(O)cc(O)c12` [kampferol]: in the assay with ulcer, the anti-ulcerative action result was “anti-ulcerative action”.

For the compound `COc1ccc(-c2cc(=O)c3c(O)cc(OC)cc3o2)cc1` [apigenin-7,4'-dimethylether], the anti-ulcerative action result with ulcer is listed as “anti-ulcerative action”.

Take `COc1ccc(-c2cc(=O)c3c(O)c(OC)ccc3o2)cc1OC` [5-hydroxy-3',4',6-trimethoxy flavone]: in assay [1], the inhibition in vivo at 0.3 mg/kg came out at 38%, the inhibition in vivo at 1 mg/kg turned out to be 42% and the inhibition in vivo at 3 mg/kg was determined as 64%.
